In patent US20230233569A1 (Revolution Medicines, Inc., priority 2020, published 2023):

Assays:
AsPC-1 (K-Ras G12D) [1] = assay: Potency assay: pERK; type: cell-based; conditions: Homo sapiens, ASPC1, read-out: pERK EC50
KRAS G12D = KRAS G12D (Homo sapiens, UniProt P01116+P62937, G12D); assay: Ras-Raf disruption / FRET / MOA assay (BRAF RBD); type: biochemical; conditions: KRAS G12D FRET data IC50, Ras-Raf disruption, with Cyclophilin A
Summary of the method: (§1)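 TR-FRET in 25 mM HEPES pH 7.3, 100 mM NaCl, 5 mM MgCl2, 0.1% BSA, 0.002% Tween20 with 25 μM Cyclophilin A, 12.5 nM His6-Ras-GMPPNP, 50 nM GST-BRAF RBD; compound 10-point 3-fold series from 30 μM. After 3 h at 25 °C, Eu anti-His/APC anti-GST added for 1.5 h; IC50 from ratio decrease versus DMSO.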

KRAS G12V = KRAS G12V (Homo sapiens, UniProt P01116+P62937, G12V); assay: Ras-Raf disruption / FRET / MOA assay (BRAF RBD); type: biochemical; conditions: KRAS G12V FRET data IC50, Ras-Raf disruption, with Cyclophilin A
KRAS G12V, sequence (P01116 1-169 isoform P01116-2 G12V limits assumed): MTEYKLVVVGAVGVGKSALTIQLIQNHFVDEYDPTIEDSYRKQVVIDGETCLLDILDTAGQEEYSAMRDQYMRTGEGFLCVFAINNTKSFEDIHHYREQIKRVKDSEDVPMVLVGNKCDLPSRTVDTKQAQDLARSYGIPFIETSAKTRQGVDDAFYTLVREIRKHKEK
KRAS G12V, sequence (P62937 whole entry): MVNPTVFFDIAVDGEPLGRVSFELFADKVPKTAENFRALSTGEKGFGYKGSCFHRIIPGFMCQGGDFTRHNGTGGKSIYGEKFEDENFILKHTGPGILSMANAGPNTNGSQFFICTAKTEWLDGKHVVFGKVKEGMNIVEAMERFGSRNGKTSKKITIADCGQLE
Summary of the method: as §1

KRAS G13D = KRAS G13D (Homo sapiens, UniProt P01116+P62937, G13D); assay: Ras-Raf disruption / FRET / MOA assay (BRAF RBD); type: biochemical; conditions: KRAS G13D FRET data IC50, Ras-Raf disruption, with Cyclophilin A
KRAS G13D, sequence (P01116 1-169 isoform P01116-2 G13D limits assumed): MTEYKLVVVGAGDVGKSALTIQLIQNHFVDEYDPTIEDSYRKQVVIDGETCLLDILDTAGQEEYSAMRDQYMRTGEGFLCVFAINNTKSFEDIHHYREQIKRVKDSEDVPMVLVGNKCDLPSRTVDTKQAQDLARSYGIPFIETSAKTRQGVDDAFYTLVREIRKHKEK
KRAS G13D, sequence (P62937 whole entry): as the sequence (P62937 whole entry) above
Summary of the method: as §1

KRAS WT = KRAS WT (Homo sapiens, UniProt P01116+P62937); assay: Ras-Raf disruption / FRET / MOA assay (BRAF RBD); type: biochemical; conditions: KRAS WT FRET data IC50, Ras-Raf disruption, with Cyclophilin A
KRAS WT, sequence (P01116 1-169 isoform P01116-2 limits assumed): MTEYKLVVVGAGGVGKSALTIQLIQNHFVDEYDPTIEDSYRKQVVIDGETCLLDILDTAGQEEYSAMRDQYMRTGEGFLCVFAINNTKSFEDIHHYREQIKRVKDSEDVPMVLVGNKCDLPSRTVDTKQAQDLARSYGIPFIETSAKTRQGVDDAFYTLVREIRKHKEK
KRAS WT, sequence (P62937 whole entry): as the sequence (P62937 whole entry) above
Summary of the method: as §1

KRAS G13C = KRAS G13C (Homo sapiens, UniProt P01116+P62937, G13C); assay: Ras-Raf disruption / FRET / MOA assay (BRAF RBD); type: biochemical; conditions: KRAS G13C FRET data IC50, Ras-Raf disruption, with Cyclophilin A
KRAS G13C, sequence (P01116 1-169 isoform P01116-2 G13C limits assumed): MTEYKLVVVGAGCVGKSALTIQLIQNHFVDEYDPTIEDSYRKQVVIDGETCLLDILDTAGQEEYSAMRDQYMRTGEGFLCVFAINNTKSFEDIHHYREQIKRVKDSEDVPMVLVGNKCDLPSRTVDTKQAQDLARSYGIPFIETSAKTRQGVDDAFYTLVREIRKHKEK
KRAS G13C, sequence (P62937 whole entry): as the sequence (P62937 whole entry) above
Summary of the method: as §1

NRAS G12C = NRAS G12C (Homo sapiens, UniProt P01111+P62937, G12C); assay: Ras-Raf disruption / FRET / MOA assay (BRAF RBD); type: biochemical; conditions: NRAS G12C FRET data IC50, NRAS G12C
NRAS G12C, sequence (P01111 whole entry G12C): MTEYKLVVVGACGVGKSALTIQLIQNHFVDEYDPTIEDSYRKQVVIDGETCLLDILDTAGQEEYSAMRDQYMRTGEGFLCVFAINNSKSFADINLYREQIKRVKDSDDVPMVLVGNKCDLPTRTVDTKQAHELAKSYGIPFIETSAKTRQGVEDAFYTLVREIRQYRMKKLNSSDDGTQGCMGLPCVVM
NRAS G12C, sequence (P62937 whole entry): as the sequence (P62937 whole entry) above
Summary of the method: as §1

KRAS G12S = KRAS G12S (Homo sapiens, UniProt P01116+P62937, G12S); assay: Ras-Raf disruption / FRET / MOA assay (BRAF RBD); type: biochemical; conditions: KRAS G12S FRET data IC50, Ras-Raf disruption, with Cyclophilin A
KRAS G12S, sequence (P01116 1-169 isoform P01116-2 G12S limits assumed): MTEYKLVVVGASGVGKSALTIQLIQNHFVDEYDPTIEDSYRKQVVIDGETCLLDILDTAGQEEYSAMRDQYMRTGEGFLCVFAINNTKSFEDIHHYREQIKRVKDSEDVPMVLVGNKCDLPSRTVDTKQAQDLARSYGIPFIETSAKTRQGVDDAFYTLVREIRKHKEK
KRAS G12S, sequence (P62937 whole entry): as the sequence (P62937 whole entry) above
Summary of the method: as §1

NCI-H358 (K-Ras G12C) = assay: CellTiter-Glo cell viability assay; type: cell-based; conditions: Homo sapiens, NCI-H358, 120 h, read-out: H358 Cell Viability assay data IC50, K-Ras G12C, 5-day treatment
Summary of the method: (§2)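 Compounds dispensed directly onto seeded AsPC-1 (K-Ras G12D) or NCI-H358 (K-Ras G12C) cells; CellTiter-Glo luminescence read on day 5 after ~30 min equilibration to room temperature. Signal normalized to DMSO average (%) and fit by four-parameter logistic.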

AsPC-1 (K-Ras G12D) [2] = assay: CellTiter-Glo cell viability assay; type: cell-based; conditions: Homo sapiens, ASPC1, 120 h, read-out: AsPC-1 Cell Viability assay data IC50, K-Ras G12D, 5-day treatment
Summary of the method: as §2

KRAS G12C = KRAS G12C (Homo sapiens, UniProt P01116+P62937, G12C); assay: Ras-Raf disruption / FRET / MOA assay (BRAF RBD); type: biochemical; conditions: KRAS G12C FRET data IC50, Ras-Raf disruption, with Cyclophilin A
KRAS G12C, sequence (P01116 1-169 isoform P01116-2 G12C limits assumed): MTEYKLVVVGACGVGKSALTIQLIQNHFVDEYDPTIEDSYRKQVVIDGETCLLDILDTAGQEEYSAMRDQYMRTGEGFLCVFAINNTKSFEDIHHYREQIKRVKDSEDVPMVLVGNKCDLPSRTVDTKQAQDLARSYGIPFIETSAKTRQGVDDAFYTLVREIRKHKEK
KRAS G12C, sequence (P62937 whole entry): as the sequence (P62937 whole entry) above
Summary of the method: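 His6-K-Ras G12C-GMPPNP (12.5 nM), GST-BRAF RBD (50 nM) and tagless Cyclophilin A (25 μM) incubated 3 h at 25 °C with compound (10-point 3-fold series from 30 μM), pH 7.3 HEPES buffer. Anti-His Eu/anti-GST APC added for 1.5 h; decreased TR-FRET ratio vs DMSO gives IC50.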

NRAS Q61K = NRAS Q61K (Homo sapiens, UniProt P01111+P62937, Q61K); assay: Ras-Raf disruption / FRET / MOA assay (BRAF RBD); type: biochemical
NRAS Q61K, sequence (P01111 whole entry Q61K): as the sequence (P01111 whole entry G12C) above, with C12G, Q61K counted along it
NRAS Q61K, sequence (P62937 whole entry): as the sequence (P62937 whole entry) above
Summary of the method: as §1

KRAS Q61H = KRAS Q61H (Homo sapiens, UniProt P01116+P62937, Q61H); assay: Ras-Raf disruption / FRET / MOA assay (BRAF RBD); type: biochemical
KRAS Q61H, sequence (P01116 1-169 isoform P01116-2 Q61H limits assumed): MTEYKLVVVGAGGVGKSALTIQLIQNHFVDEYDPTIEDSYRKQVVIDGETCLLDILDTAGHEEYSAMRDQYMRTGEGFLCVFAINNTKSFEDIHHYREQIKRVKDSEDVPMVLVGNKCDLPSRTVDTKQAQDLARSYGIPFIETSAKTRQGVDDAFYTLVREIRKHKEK
KRAS Q61H, sequence (P62937 whole entry): as the sequence (P62937 whole entry) above
Summary of the method: as §1

NRAS WT = NRAS WT (Homo sapiens, UniProt P01111+P62937); assay: Ras-Raf disruption / FRET / MOA assay (BRAF RBD); type: biochemical
NRAS WT, sequence (P01111 whole entry): as the sequence (P01111 whole entry G12C) above, with C12G counted along it
NRAS WT, sequence (P62937 whole entry): as the sequence (P62937 whole entry) above
Summary of the method: as §1

NRAS Q61R = NRAS Q61R (Homo sapiens, UniProt P01111+P62937, Q61R); assay: Ras-Raf disruption / FRET / MOA assay (BRAF RBD); type: biochemical
NRAS Q61R, sequence (P01111 whole entry Q61R): as the sequence (P01111 whole entry G12C) above, with C12G, Q61R counted along it
NRAS Q61R, sequence (P62937 whole entry): as the sequence (P62937 whole entry) above
Summary of the method: as §1

KRAS G12D, sequence (P01116 1-169 isoform P01116-2 G12D limits assumed): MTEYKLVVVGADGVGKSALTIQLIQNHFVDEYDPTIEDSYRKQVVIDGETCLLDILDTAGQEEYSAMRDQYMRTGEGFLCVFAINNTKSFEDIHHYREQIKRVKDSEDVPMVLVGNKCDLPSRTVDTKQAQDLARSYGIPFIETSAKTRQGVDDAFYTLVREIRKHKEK
KRAS G12D, sequence (P62937 whole entry): as the sequence (P62937 whole entry) above

SMILES	EC50 (AsPC-1 (K-Ras G12D) [1]) [nM]	IC50 (KRAS G12D) [nM]	IC50 (KRAS G12V) [nM]	IC50 (KRAS G13D) [nM]	IC50 (KRAS WT) [nM]	IC50 (KRAS G13C) [nM]	IC50 (NRAS G12C) [nM]	IC50 (KRAS G12S) [nM]	IC50 (NCI-H358 (K-Ras G12C)) [nM]	IC50 (AsPC-1 (K-Ras G12D) [2]) [nM]	IC50 (KRAS G12C) [nM]	IC50 (NRAS Q61K) [nM]	IC50 (KRAS Q61H) [nM]	IC50 (NRAS WT) [nM]	IC50 (NRAS Q61R) [nM]
CCn1c(-c2cccnc2[C@H](C)OC)c2c3cc(ccc31)-c1cc(O)cc(c1)C[C@H](NC(=O)[C@H](C(C)C)N(C)C(=O)CN(C)C(=O)[C@@H]1N[C@@H]1C1CC1)C(=O)N1CCC[C@H](N1)C(=O)OCC(C)(C)C2 [Example 133]	< 5000	10 to 100	10 to 100	10 to 100	10 to 100	10 to 100	10 to 100	10 to 100	10 to 100	10 to 100	10 to 100				
CCn1c(-c2cccnc2[C@H](C)OC)c2c3cc(ccc31)-c1cc(O)cc(c1)C[C@H](NC(=O)[C@H](C(C)C)N(C)C(=O)CN(C)C(=O)[C@@H]1CN1CCCOC)C(=O)N1CCC[C@H](N1)C(=O)OCC(C)(C)C2 (stereo partly drawn) [Example 137]	< 5000	10 to 100	10 to 100	10 to 100	10 to 100	10 to 100	< 10	10 to 100	< 10	100 to 1000	< 10				
CCn1c(-c2cccnc2[C@H](C)OC)c2c3cc(ccc31)-c1cc(O)cc(c1)C[C@H](NC(=O)[C@H](C(C)C)N(C)C(=O)CNC(=O)[C@@H]1N[C@@H]1C1CC1)C(=O)N1CCC[C@H](N1)C(=O)OCC(C)(C)C2 [Example 141]	< 5000	10 to 100	10 to 100	100 to 1000	10 to 100	10 to 100	10 to 100	10 to 100	100 to 1000	100 to 1000	10 to 100	100 to 1000	10 to 100	10 to 100	100 to 1000
CCn1c(-c2cccnc2[C@H](C)OC)c2c3cc(ccc31)-c1cc(O)cc(c1)C[C@H](NC(=O)[C@H](C(C)C)N(C)C(=O)CN(C)C(=O)[C@H]1CN1C(C)C)C(=O)N1CCC[C@H](N1)C(=O)OCC(C)(C)C2 (stereo partly drawn) [Example 142]	< 5000	100 to 1000	100 to 1000	100 to 1000	100 to 1000	10 to 100	< 10	10 to 100	< 10	100 to 1000	< 10				
CCn1c(-c2cccnc2[C@H](C)OC)c2c3cc(ccc31)-c1cc(O)cc(c1)C[C@H](NC(=O)[C@H](C(C)C)N(C)C(=O)CN(C)C(=O)[C@@H]1CN1C(C)C)C(=O)N1CCC[C@H](N1)C(=O)OCC(C)(C)C2 (stereo partly drawn) [Example 148]	< 5000	10 to 100	10 to 100	10 to 100	10 to 100	10 to 100	< 10	10 to 100	< 10	100 to 1000	< 10				
CCn1c(-c2cccnc2[C@H](C)OC)c2c3cc(ccc31)-c1cc(O)cc(c1)C[C@H](NC(=O)[C@H](C(C)C)N(C)C(=O)CN(C)C(=O)[C@H]1CN1Cc1ccccc1F)C(=O)N1CCC[C@H](N1)C(=O)OCC(C)(C)C2 (stereo partly drawn) [Example 155]	< 5000	100 to 1000	10 to 100	100 to 1000	10 to 100	10 to 100	< 10	10 to 100	< 10	100 to 1000	10 to 100				
CCn1c(-c2cccnc2[C@H](C)OC)c2c3cc(ccc31)-c1cc(O)cc(c1)C[C@H](NC(=O)[C@H](C(C)C)N(C)C(=O)CN(C)C(=O)[C@H]1CN1Cc1ccccc1CO)C(=O)N1CCC[C@H](N1)C(=O)OCC(C)(C)C2 (stereo partly drawn) [Example 156]	< 5000	100 to 1000	10 to 100	100 to 1000	10 to 100	10 to 100	< 10	10 to 100	< 10	100 to 1000	< 10				
CCn1c(-c2cccnc2[C@H](C)OC)c2c3cc(ccc31)-c1cc(O)cc(c1)C[C@H](NC(=O)[C@H](C(C)C)N(C)C(=O)CN(C)C(=O)[C@@H]1CN1CCOC)C(=O)N1CCC[C@H](N1)C(=O)OCC(C)(C)C2 (stereo partly drawn) [Example 160]	< 5000	100 to 1000	10 to 100	100 to 1000	10 to 100	10 to 100	< 10	10 to 100	< 10	100 to 1000	10 to 100				
CCn1c(-c2cccnc2[C@H](C)OC)c2c3cc(ccc31)-c1cc(O)cc(c1)C[C@H](NC(=O)[C@H](C(C)C)N(C)C(=O)CN(C)C(=O)[C@H]1CN1CCCOC)C(=O)N1CCC[C@H](N1)C(=O)OCC(C)(C)C2 (stereo partly drawn) [Example 201]	< 5000	100 to 1000	10 to 100	100 to 1000	10 to 100	10 to 100	< 10	10 to 100	< 10	100 to 1000	< 10				
CCn1c(-c2cccnc2[C@H](C)OC)c2c3cc(ccc31)-c1cc(O)cc(c1)C[C@H](NC(=O)[C@H](C(C)C)N(C)C(=O)CN(C)C(=O)[C@@H]1CN1CCCOC(C)=O)C(=O)N1CCC[C@H](N1)C(=O)OCC(C)(C)C2 (stereo partly drawn) [Example 267]	< 5000	10 to 100	10 to 100	100 to 1000	10 to 100	10 to 100	< 10	10 to 100	< 10	100 to 1000	< 10	100 to 1000	10 to 100		100 to 1000
